Here are results for seven molecules from ChEMBL document CHEMBL3232868, “Programmable DNA-binding small molecules” (Bioorg Med Chem, 2013).

Test [1] is described as follows: Binding affinity to DNA HRE binding site (unknown origin) by DNase 1 footprint titrations method.
The species named for test [2] is Homo sapiens. Put plainly: Binding affinity to DNA HRE binding site (unknown origin) assessed as inhibition of HIF-1alpha/ARNT heterodimer binding.
The test system of test [3] is Human papillomavirus type 16. Nature of the test: Antiviral activity against HPV16 assessed as inhibition of viral replication. The class given is functional, organism-based. The note with it: Human papillomavirus 16.
The nature of test [4]: Binding affinity to 5'-WGWWCW-3' DNA (unknown origin).
Test [5] is described as follows: Binding affinity to rat TGF-beta1 promoter AP1 binding site by gel mobility shift and SPR method. On the technique in general: In SPR one partner is held on a chip, and binding of the other changes the refractive index at the surface.
Test [6] in a line: Binding affinity to 5'-TGTTAT-3' DNA (unknown origin).

Structures are written as SMILES.

On to `CN(CCCNC(=O)c1cc(NC(=O)c2cc(NC(=O)c3nc(NC(=O)c4cc(NC(=O)[C@H](N)CCNC(=O)c5nc(NC(=O)c6cc(NC(=O)c7cc(NC(=O)c8sccc8Cl)cn7C)cn6C)cn5C)cn4C)cn3C)cn2C)cn1C)CCCNC(=S)Nc1ccc(-c2c3ccc(=O)cc-3oc3cc(O)ccc23)c(C(=O)O)c1`, for which, in test [1], the Ka amounted to 6.3 ×10⁹ /M. The INH in test [2] came to 0.25 nM.

With `Cn1cc(NC(=O)c2cc(NC(=O)c3cc(NC=O)cn3C)cn2C)cc1C(=O)NCCC(=N)N` [STALLIMYCIN], in test [3], the IC50 (usually the concentration that gives 50% inhibition) came to 33000 nM.

Molecule `CN(CCCNC(=O)c1cccc(C(=O)O)c1)CCCNC(=O)c1cc(NC(=O)c2cc(NC(=O)c3cc(NC(=O)c4nc(NC(=O)C[C@@H](CNC(=O)c5cc(NC(=O)c6cc(NC(=O)c7cc(NC(=O)c8nccn8C)cn7C)cn6C)cn5C)NC(=O)c5ccc(-c6ccccc6)cc5)cn4C)cn3C)cn2C)cn1C` came in with an IC50 in test [4] of 13 nM.

In the case of `CC(=O)Nc1cc(C(=O)Nc2cc(C(=O)NCCC(=O)Nc3cc(C(=O)Nc4cn(C)c(C(=O)Nc5cc(C(=O)NCCCC(=O)Nc6cc(C(=O)Nc7cc(C(=O)Nc8cc(C(=O)NCCC(=O)Nc9cn(C)c(C(=O)Nc%10cc(C(=O)NCCC(=O)NCCCN(C)C)n(C)c%10)n9)n(C)c8)n(C)c7)n(C)c6)n(C)c5)n4)n(C)c3)n(C)c2)n(C)c1`, the Kd (usually the free concentration of one partner at which half of the binding sites on the other are occupied at equilibrium, for simple one-to-one binding) in test [5] worked out at 1.43 nM.

Take `CN(CCCN)CCCNC(=O)CCNC(=O)c1cc(NC(=O)c2cc(NC(=O)c3cc(NC(=O)c4cc(NC(=O)CCCNC(=O)c5cc(NC(=O)c6cc(NC(=O)c7cc(NC(=O)c8nccn8C)cn7C)cn6C)cn5C)cn4C)cn3C)cn2C)cn1C`: in test [6], the equilibrium dissociation constant (Kd) turned out to be 1.1 nM.

`CN(CCCNC(=O)c1cccc(C(=O)O)c1)CCCNC(=O)c1cc(NC(=O)c2cc(NC(=O)c3cc(NC(=O)c4nc(NC(=O)C[C@@H](CNC(=O)c5cc(NC(=O)c6cc(NC(=O)c7cc(NC(=O)c8nccn8C)cn7C)cn6C)cn5C)NC(=O)c5ccc([N+](=O)[O-])cc5)cn4C)cn3C)cn2C)cn1C`: the IC50 in test [4] was 10 nM.

`CN(CCCNC(=O)c1cccc(C(=O)O)c1)CCCNC(=O)c1cc(NC(=O)c2cc(NC(=O)c3cc(NC(=O)c4nc(NC(=O)C[C@@H](CNC(=O)c5cc(NC(=O)c6cc(NC(=O)c7cc(NC(=O)c8nccn8C)cn7C)cn6C)cn5C)NC(=O)c5ccccn5)cn4C)cn3C)cn2C)cn1C`: in test [4], the IC50 was determined as 21 nM.
